The source of these data is ChEMBL document CHEMBL1140494, “Imidazopiperidine amides as dipeptidyl peptidase IV inhibitors for the treatment of diabetes” (Bioorg Med Chem Lett, 2007).

A short description of data set [1]: Half life in rat at 1 mg/kg, iv and 2 mg/kg, po. The data set is classed as ADME, organism-based. The conditions noted are these: in vivo.
In a further data set the target is Dipeptidyl peptidase 2 (Homo sapiens, UniProt Q9UHL4). Put plainly: Inhibition of QPP.
A short description of data set [2]: Oral bioavailability in rat at 2 mg/kg, po. It is filed as ADME, organism-based. The conditions noted are these: in vivo.
Data set [3] is described as follows: Volume of distribution at steady state in rat at 1 mg/kg, iv and 2 mg/kg, po. It is filed as ADME, organism-based. The note with it: in vivo, read-out: Vdss.
Data set [4] in a line: Cmax in rat at 2 mg/kg, po. The data set is classed as ADME, organism-based. Also noted: dose 2 mg/kg, route oral. The note with it: in vivo.
A short description of data set [5]: Plasma clearance in rat at 1 mg/kg, iv and 2 mg/kg, po. The data set is classed as ADME, organism-based.
A further data set concerns the target Dipeptidyl peptidase 4 (Homo sapiens, UniProt P27487). In words: Inhibition of DPP4.
The next data set addresses Dipeptidyl peptidase 9 (Homo sapiens, UniProt Q86TI2). In words: Inhibition of DPP9.
The target in a further data set is Dipeptidyl peptidase 8 (Homo sapiens, UniProt Q6V1X1). Put plainly: Inhibition of DPP8.
Sequence of Dipeptidyl peptidase 8 (Q6V1X1 whole entry): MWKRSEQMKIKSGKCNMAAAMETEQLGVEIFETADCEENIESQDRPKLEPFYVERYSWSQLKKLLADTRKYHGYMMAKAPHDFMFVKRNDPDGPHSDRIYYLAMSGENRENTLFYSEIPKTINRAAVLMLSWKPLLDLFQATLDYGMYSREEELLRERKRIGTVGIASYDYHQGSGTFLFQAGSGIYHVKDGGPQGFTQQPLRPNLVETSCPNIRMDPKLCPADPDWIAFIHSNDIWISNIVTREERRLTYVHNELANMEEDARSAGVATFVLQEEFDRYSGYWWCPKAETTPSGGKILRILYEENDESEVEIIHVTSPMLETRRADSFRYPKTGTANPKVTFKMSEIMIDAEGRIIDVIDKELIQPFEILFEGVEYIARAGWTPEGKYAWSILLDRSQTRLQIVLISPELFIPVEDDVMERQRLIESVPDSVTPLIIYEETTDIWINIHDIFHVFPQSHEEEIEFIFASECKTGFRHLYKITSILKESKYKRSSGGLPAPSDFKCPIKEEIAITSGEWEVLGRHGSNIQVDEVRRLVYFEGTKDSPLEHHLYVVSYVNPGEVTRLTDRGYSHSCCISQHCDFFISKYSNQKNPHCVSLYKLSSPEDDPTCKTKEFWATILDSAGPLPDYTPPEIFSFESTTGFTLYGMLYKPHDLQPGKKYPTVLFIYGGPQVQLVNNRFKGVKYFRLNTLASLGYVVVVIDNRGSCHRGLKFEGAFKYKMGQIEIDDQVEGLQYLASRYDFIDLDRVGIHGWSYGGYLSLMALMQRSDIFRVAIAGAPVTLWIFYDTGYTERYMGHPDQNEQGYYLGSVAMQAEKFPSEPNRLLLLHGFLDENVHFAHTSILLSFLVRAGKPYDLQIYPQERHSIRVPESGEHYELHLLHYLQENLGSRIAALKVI

Sequence of Dipeptidyl peptidase 9 (Q86TI2 whole entry): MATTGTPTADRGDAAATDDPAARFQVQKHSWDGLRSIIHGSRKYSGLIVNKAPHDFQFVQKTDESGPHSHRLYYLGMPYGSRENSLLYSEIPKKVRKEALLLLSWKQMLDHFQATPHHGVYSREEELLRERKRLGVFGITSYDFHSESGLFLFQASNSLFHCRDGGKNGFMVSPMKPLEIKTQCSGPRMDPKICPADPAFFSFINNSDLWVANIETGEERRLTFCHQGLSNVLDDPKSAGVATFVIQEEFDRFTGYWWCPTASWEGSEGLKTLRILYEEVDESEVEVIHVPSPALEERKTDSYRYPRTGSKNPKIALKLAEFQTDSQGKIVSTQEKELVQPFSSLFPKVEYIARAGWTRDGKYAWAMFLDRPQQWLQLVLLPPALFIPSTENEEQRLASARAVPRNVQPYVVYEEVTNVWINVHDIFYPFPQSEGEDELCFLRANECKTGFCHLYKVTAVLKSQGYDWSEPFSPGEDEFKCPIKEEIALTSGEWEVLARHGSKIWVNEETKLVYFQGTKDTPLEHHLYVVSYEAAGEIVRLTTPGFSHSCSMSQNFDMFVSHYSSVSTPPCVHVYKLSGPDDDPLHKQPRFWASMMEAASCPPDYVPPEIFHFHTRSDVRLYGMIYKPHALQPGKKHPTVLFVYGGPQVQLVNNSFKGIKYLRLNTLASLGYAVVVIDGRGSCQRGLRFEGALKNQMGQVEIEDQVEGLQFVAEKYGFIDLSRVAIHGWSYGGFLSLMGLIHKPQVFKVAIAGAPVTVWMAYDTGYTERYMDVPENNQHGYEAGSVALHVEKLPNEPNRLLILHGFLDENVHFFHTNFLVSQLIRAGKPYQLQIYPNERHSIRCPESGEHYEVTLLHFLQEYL
Sequence of Dipeptidyl peptidase 4 (P27487 whole entry): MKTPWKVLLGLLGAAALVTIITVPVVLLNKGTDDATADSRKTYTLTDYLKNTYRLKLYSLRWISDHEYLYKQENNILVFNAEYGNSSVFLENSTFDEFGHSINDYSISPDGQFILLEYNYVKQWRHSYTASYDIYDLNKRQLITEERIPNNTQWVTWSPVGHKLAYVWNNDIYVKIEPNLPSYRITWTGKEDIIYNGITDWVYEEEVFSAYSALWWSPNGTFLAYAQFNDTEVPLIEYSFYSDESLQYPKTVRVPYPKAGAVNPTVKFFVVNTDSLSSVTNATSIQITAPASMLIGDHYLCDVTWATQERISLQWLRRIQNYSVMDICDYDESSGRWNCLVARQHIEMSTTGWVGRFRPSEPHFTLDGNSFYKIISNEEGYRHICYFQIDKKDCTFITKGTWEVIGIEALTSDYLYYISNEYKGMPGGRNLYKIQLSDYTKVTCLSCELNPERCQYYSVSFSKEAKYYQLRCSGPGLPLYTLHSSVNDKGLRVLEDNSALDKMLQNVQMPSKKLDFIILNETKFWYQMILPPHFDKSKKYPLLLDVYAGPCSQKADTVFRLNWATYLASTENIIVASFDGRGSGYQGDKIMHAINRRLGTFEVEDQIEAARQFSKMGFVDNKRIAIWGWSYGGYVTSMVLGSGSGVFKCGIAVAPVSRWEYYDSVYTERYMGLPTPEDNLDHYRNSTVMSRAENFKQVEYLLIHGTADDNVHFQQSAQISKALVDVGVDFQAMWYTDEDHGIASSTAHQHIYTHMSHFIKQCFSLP

On to `Cn1cnc2c1CCN(C(=O)C[C@H](N)Cc1cc(F)c(F)cc1F)C2C(F)(F)F` (stereo in doubt; 67b), for which the half-life (in general, the time needed for the level to fall by half in the phase considered) in [1] is 1.4 h. Moreover, the results for the half-inhibitory concentration (IC50) at Dipeptidyl peptidase 2, against Dipeptidyl peptidase 4 and against Dipeptidyl peptidase 9 were 38 µM, 0.05 µM and more than 100 µM, respectively. The bioavailability (usually the share of a dose that reaches the circulation, judged against a reference dose that is usually intravenous) in data set [2] was found to be 16%. Besides, in data set [3], the Vd is 8.3 L/kg. Moreover, in [4], the Cmax – broadly, the peak of the concentration-time curve – is 50 nM. Also, in data set [5], the clearance came to 93 mL/min/kg.

On to `Cn1c(C(F)(F)F)nc2c1CCN(C(=O)C[C@H](N)Cc1cc(F)c(F)cc1F)C2Cc1ccccc1` (stereo in doubt; 71a), for which the half-maximal inhibitory concentration (IC50) (as a rule, the concentration that inhibits the measured activity by half) against Dipeptidyl peptidase 2 is 46 µM; against Dipeptidyl peptidase 4 it was 0.57 µM; on Dipeptidyl peptidase 9, more than 100 µM.

As to `CC1c2nc(C(F)(F)F)n(C)c2CCN1C(=O)C[C@H](N)Cc1cc(F)ccc1F` (stereo in doubt; 63b), the 50% inhibitory concentration (IC50) against Dipeptidyl peptidase 2 is more than 100 µM; against Dipeptidyl peptidase 4 it was 0.065 µM; against Dipeptidyl peptidase 9, more than 100 µM.

Consider `CC1c2nc(C(F)(F)F)n(C)c2CCN1C(=O)C[C@H](N)Cc1cc(F)ccc1F` (stereo in doubt; 63a), for which the results for the IC50 against Dipeptidyl peptidase 2, against Dipeptidyl peptidase 4 and against Dipeptidyl peptidase 9 were more than 100 µM, 0.19 µM and more than 100 µM, respectively.

The molecule `CC1c2nc(C3CC3)n(C)c2CCN1C(=O)C[C@H](N)Cc1cc(F)c(F)cc1F` (stereo not given in full) [listing 1 of 2 here] came in with a half-inhibitory concentration (IC50) against Dipeptidyl peptidase 2 of 30 µM.

Regarding `CC1c2nc(C(C)(C)C)n(C)c2CCN1C(=O)C[C@H](N)Cc1cc(F)c(F)cc1F` (stereo in doubt; 70a), the results for the IC50 against Dipeptidyl peptidase 2 and at Dipeptidyl peptidase 4 were 37 µM and 0.63 µM, respectively.

Turning to `CC1c2nc(C3CC3)n(C)c2CCN1C(=O)C[C@H](N)Cc1cc(F)c(F)cc1F` (stereo not given in full) [listing 2 of 2 here], inhibition against Dipeptidyl peptidase 2 was half-maximal at 90 µM (IC50).

Consider `Cn1c(C(F)(F)F)nc2c1CCN(C(=O)C[C@H](N)Cc1cc(F)ccc1F)C2`, for which the IC50 at Dipeptidyl peptidase 2 was 92 µM; against Dipeptidyl peptidase 4 it was 0.15 µM; against Dipeptidyl peptidase 9, more than 100 µM.

In the case of `Cn1c(C(F)(F)F)nc2c1CCN(C(=O)C[C@H](N)Cc1cc(F)c(F)cc1F)C2C1CC1` (stereo in doubt; 68a), the IC50 is more than 100 µM at Dipeptidyl peptidase 2, 0.34 µM against Dipeptidyl peptidase 4 and more than 100 µM on Dipeptidyl peptidase 9.

As to `N[C@@H](CC(=O)N1CCc2c(nc(C(F)(F)F)n2Cc2ccc(F)cc2)C1)Cc1cc(F)ccc1F`, the concentration for half-maximal inhibition (IC50) at Dipeptidyl peptidase 2 is 64 µM; against Dipeptidyl peptidase 4, 0.25 µM; on Dipeptidyl peptidase 9 it was more than 100 µM.

In the case of `CC1c2nc(C(C)(C)C)n(C)c2CCN1C(=O)C[C@H](N)Cc1cc(F)c(F)cc1F` (stereo in doubt; 70b), the IC50 against Dipeptidyl peptidase 2 stood at 19 µM; against Dipeptidyl peptidase 4, 0.37 µM.

As to `CC(C)Cn1c(C(F)(F)F)nc2c1CN(C(=O)C[C@H](N)Cc1cc(F)ccc1F)CC2`, the IC50 is 85 µM on Dipeptidyl peptidase 2, more than 100 µM against Dipeptidyl peptidase 8, 0.26 µM on Dipeptidyl peptidase 4 and more than 100 µM at Dipeptidyl peptidase 9.

Take `CCn1c(C(F)(F)F)nc2c1CCN(C(=O)C[C@H](N)Cc1cc(F)ccc1F)C2`: the IC50 is more than 100 µM against Dipeptidyl peptidase 2, 0.18 µM on Dipeptidyl peptidase 4 and more than 100 µM against Dipeptidyl peptidase 9.

Turning to `CC1c2nc(C(F)(F)F)n(C)c2CCN1C(=O)C[C@H](N)Cc1cc(F)c(F)cc1F` (stereo not given in full), the half-life in data set [1] is 1.2 h. In addition, the figures for the IC50 on Dipeptidyl peptidase 2 and on Dipeptidyl peptidase 9 were 39 µM and more than 100 µM, respectively. For the same molecule, the bioavailability in [2] stood at 40%. Besides, the Vd in data set [3] is 8 L/kg. The molecule further showed a Cmax in data set [4] of 98 nM. This molecule showed a clearance in data set [5] of 81 mL/min/kg.

As to `Cn1c(C(F)(F)F)nc2c1CCN(C(=O)C[C@H](N)Cc1cc(F)c(F)cc1F)C2Cc1ccc(F)cc1` (stereo in doubt; 72a), the values for the IC50 on Dipeptidyl peptidase 2, against Dipeptidyl peptidase 4 and at Dipeptidyl peptidase 9 were 39 µM, 0.78 µM and more than 100 µM, respectively.

Turning to `N[C@@H](CC(=O)N1CCc2nc(C(F)(F)F)n(Cc3ccc(F)cc3)c2C1)Cc1cc(F)ccc1F`, the half-maximal inhibitory concentration (IC50) was 56 µM against Dipeptidyl peptidase 2, more than 100 µM against Dipeptidyl peptidase 8, 0.25 µM on Dipeptidyl peptidase 4 and more than 100 µM against Dipeptidyl peptidase 9.

On to `Cn1c(C(F)(F)F)nc2c1CCN(C(=O)C[C@H](N)Cc1cc(F)c(F)cc1F)C2Cc1ccccc1` (stereo in doubt; 71b), for which the half-life in data set [1] is 1.5 h. Moreover, the IC50 against Dipeptidyl peptidase 2 is 20 µM; against Dipeptidyl peptidase 4, 0.0084 µM; at Dipeptidyl peptidase 9 it was more than 100 µM. The molecule further gave a bioavailability in data set [2] of 16%. In data set [3], the Vd was found to be 6.5 L/kg. Moreover, the concentration in [4] peaked (Cmax) at 72 nM. Besides, the clearance in data set [5] stood at 64 mL/min/kg.

Regarding `N[C@@H](CC(=O)N1CCc2[nH]c(C(F)(F)F)nc2C1)Cc1cc(F)ccc1F`, the concentration for half-maximal inhibition (IC50) is more than 100 µM on Dipeptidyl peptidase 2 and 0.14 µM on Dipeptidyl peptidase 4.

For the molecule `Cn1c(C(F)(F)F)nc2c1CCN(C(=O)C[C@H](N)Cc1cc(F)c(F)cc1F)C2C1CC1` (stereo in doubt; 68b), the IC50 at Dipeptidyl peptidase 2 was 37 µM; against Dipeptidyl peptidase 4, 0.11 µM; against Dipeptidyl peptidase 9 it was more than 100 µM.

For the molecule `Cn1cnc2c1CCN(C(=O)C[C@H](N)Cc1cc(F)c(F)cc1F)C2C(F)(F)F` (stereo in doubt; 67a), the half-maximal inhibitory concentration (IC50) at Dipeptidyl peptidase 2 is 76 µM; on Dipeptidyl peptidase 4 it was 0.38 µM; against Dipeptidyl peptidase 9, more than 100 µM.

`Cn1c(C(F)(F)F)nc2c1CCN(C(=O)C[C@H](N)Cc1cc(F)c(F)cc1F)C2Cc1ccc(F)cc1` (stereo in doubt; 72b): the half-inhibitory concentration (IC50) against Dipeptidyl peptidase 2 is 15 µM; on Dipeptidyl peptidase 4, 0.0058 µM; against Dipeptidyl peptidase 9, more than 100 µM.

On to `CC(C)Cn1c(C(F)(F)F)nc2c1CCN(C(=O)C[C@H](N)Cc1cc(F)ccc1F)C2`, for which the IC50 against Dipeptidyl peptidase 2 was 49 µM; at Dipeptidyl peptidase 4, 0.22 µM; on Dipeptidyl peptidase 9, more than 100 µM.
